Experimental data from publication PMC7878489, “Gene delivery corrects N-acetylglutamate synthase deficiency and enables insights in the physiological impact of L-arginine activation of N-acetylglutamate synthase” (Scientific Reports, 2021).

Experiments:
hNAGS (human NAGS) = target: T1, hNAGS (human NAGS) (Homo sapiens, UniProt Q8N159); test: NAGS specific activity; format: biochemical
T1 construct: appears to be tetramer
T1 sequence (Q8N159 51-534): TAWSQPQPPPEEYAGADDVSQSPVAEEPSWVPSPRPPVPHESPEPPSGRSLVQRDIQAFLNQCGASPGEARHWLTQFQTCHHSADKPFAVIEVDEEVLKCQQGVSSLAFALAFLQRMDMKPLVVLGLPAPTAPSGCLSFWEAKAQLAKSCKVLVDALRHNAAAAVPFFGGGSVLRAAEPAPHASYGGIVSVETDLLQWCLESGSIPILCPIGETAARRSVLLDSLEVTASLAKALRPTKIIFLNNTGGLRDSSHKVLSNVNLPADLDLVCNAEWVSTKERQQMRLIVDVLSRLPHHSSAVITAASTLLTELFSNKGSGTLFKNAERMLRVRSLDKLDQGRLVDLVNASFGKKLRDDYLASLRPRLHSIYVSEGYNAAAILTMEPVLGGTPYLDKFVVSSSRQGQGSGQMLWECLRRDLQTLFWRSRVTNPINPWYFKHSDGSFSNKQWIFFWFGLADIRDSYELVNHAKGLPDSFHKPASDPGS

mNAGS (mouse NAGS) = target: T2, mNAGS (mouse NAGS) (Mus musculus, UniProt Q8R4H7); test: NAGS specific activity; format: biochemical
T2 construct: appears to be tetramer
T2 sequence (Q8R4H7 51-527): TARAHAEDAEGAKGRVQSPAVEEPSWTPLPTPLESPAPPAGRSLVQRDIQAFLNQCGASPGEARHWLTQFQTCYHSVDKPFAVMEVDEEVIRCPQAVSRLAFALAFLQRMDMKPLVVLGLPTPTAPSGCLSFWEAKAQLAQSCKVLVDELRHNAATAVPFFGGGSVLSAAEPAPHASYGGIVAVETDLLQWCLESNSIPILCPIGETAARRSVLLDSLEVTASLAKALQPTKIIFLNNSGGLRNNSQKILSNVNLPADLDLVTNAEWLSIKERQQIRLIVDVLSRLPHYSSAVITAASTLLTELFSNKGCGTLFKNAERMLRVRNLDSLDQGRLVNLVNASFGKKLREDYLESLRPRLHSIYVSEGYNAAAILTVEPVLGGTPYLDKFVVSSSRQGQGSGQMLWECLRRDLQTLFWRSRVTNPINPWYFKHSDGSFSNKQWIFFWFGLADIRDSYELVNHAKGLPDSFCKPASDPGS

SMILES	NAGS specific activity (hNAGS (human NAGS); co-substrate acetyl coenzyme A)	NAGS specific activity (mNAGS (mouse NAGS); co-substrate acetyl coenzyme A)	NAGS specific activity (hNAGS (human NAGS); co-substrate glutamate)	NAGS specific activity (mNAGS (mouse NAGS); co-substrate glutamate)
N[C@@H](CCC(=O)O)C(=O)O [glutamate]	catalyzes formation of N-acetylglutamate (NAG) from glutamate and acetyl coenzyme A	catalyzes formation of N-acetylglutamate (NAG) from glutamate and acetyl coenzyme A		
CC(=O)SCCNC(=O)CCNC(=O)[C@H](O)C(C)(C)COP(=O)(O)OP(=O)(O)OC[C@H]1O[C@@H](n2cnc3c(N)ncnc32)[C@H](O)[C@@H]1OP(=O)(O)O [acetyl coenzyme A]			catalyzes formation of N-acetylglutamate (NAG) from glutamate and acetyl coenzyme A	catalyzes formation of N-acetylglutamate (NAG) from glutamate and acetyl coenzyme A
